Assay results reported in patent publication US20090130229A1, “Antitumor uses of compound” (Cell Therapeutics, Inc., priority 2002, published 2009).

How the values were obtained:
[1] = system: NIH3T3^MEN2A(C634R) cells; test: Reversion of transformed morphologic phenotype of NIH3T3 MEN2A(C634R) transfectants; format: cell-based, murine; conditions: 6 μM, 24 h, phase-contrast microscope
Experimental: (§1) FIG. 1. Effects of Cpd 1 on NIH3T3^MEN2A(C634R) transfectants expressing exogenous RET/MEN2A(C634R). […] Cells were exposed to 6 μM Cpd1 for 24 h and then photographed under a phase-contrast microscope (original magnification ×100). B) Antiproliferative effect. NIH3T3^MEN2A(C634R) cells and the parental NIH3T3 cells were treated with increasing concentrations of the drug for 72 h and then counted with a Coulter Counter. […] C) Inhibition of Ret/MEN2A(C634R) autophosphorylation and expression. Cells were treated with solvent (−) or 10 μM Cpd1 (+), for the indicated times. Whole cell-lysates were prepared and subjected to SDS-PAGE and Western blotting with anti-pTyr antibody. After stripping, the filter was reblotted with anti-Ret antibody. Arrows indicate the partial and fully glycosilated forms of the Ret/MEN2A receptor.
(§2) The following human medullary thyroid carcinoma (MTC) cell lines were used in this study. The TT cell line derived from a MEN2A-associated MTC characterized by expression of the RET oncogene carrying the mutation C634W. The MZ-CRC-1 cell line derived from MEN2B-associated MTC characterized by expression of the RET oncogene carrying the mutation M918T. […]

Ret/MEN2A(C634R) = target: T1, Ret/MEN2A(C634R) (Homo sapiens, UniProt P07949, C634R); test: Ret/MEN2A(C634R) autophosphorylation and expression in NIH3T3 transfectants (Western blotting); format: cell-based; conditions: 10 μM
T1 construct: expressed in transfected cells; host or cells: NIH3T3 (mouse fibroblasts)
T1 sequence (P07949 29-1072 isoform P07949-2 C634R limits assumed): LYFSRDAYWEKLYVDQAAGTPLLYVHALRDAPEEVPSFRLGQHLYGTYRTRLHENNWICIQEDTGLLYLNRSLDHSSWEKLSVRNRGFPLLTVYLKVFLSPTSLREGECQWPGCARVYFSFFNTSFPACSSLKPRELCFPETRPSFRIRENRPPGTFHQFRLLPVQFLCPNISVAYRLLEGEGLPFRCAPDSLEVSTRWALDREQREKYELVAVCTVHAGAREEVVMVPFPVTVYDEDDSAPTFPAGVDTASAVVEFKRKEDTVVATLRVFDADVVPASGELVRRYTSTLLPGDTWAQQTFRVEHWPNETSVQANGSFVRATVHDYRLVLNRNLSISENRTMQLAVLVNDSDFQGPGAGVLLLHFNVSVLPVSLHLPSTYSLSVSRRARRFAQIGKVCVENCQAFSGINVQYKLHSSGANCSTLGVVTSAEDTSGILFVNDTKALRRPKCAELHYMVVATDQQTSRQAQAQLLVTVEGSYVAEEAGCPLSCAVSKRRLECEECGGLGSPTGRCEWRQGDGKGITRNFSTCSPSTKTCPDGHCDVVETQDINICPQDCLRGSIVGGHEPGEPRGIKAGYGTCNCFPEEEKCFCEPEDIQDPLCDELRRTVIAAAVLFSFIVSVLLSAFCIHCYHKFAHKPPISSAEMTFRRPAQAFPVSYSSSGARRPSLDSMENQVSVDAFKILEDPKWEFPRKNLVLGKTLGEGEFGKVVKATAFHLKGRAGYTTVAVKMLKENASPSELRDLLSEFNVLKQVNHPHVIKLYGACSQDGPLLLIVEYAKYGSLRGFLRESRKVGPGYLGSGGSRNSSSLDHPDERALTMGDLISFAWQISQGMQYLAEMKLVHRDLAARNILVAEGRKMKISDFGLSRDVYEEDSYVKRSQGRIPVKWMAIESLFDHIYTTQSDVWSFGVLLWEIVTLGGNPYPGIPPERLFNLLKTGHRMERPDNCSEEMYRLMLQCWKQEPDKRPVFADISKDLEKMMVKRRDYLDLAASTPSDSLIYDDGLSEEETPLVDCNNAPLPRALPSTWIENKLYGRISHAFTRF
Experimental: as §1
The following human medullary thyroid carcinoma (MTC) cell lines were used in this study. The TT cell line derived from a MEN2A-associated MTC characterized by expression of the RET oncogene carrying the mutation C634W. The MZ-CRC-1 cell line derived from MEN2B-associated MTC characterized by expression of the RET oncogene carrying the mutation M918T. TT cells were cultivated in Ham's F12 medium (BioWhittaker, Verviers, Belgium) supplemented with 15% fetal calf serum (FCS) (Life Technologies, Inc., Gaithersburg, Md.) whereas MZ-CRC-1 cells were grown in Dulbecco's modified Eagle's medium (DMEM) (BioWhittaker) supplemented with 10% FCS. […]
(§3) For whole-cell extract preparation, cells were lysed in sodium dodecyl sulfate (SDS) sample buffer (62.5 mM Tris-HCl (pH 6.8), 2% SDS) with 1 mM PMSF, 10 μg/ml pepstatin, 12.5 μg/ml leupeptin, 100 KIU aprotinin, 1 mM sodium orthovanadate, 1 mM sodium molybdate. Protein concentration was determined in appropriately diluted aliquots by the bicinchionic acid (BCA) method (Pierce, Rockford, Ill.), then samples were adjusted to a final concentration of 10% glycerol, 5% β-mercaptoethanol, 0.001% bromophenol blue. […]

Ret/MEN2B(M918T) = target: T2, Ret/MEN2B(M918T) (Homo sapiens, UniProt P07949, M918T); test: Ret autophosphorylation and expression in MZ-CRC-1 cells (Western blotting); format: cell-based; conditions: 24 h
T2 construct: endogenous in cells; host or cells: MZ-CRC-1 (human medullary thyroid carcinoma)
T2 sequence (P07949 29-1114 M918T): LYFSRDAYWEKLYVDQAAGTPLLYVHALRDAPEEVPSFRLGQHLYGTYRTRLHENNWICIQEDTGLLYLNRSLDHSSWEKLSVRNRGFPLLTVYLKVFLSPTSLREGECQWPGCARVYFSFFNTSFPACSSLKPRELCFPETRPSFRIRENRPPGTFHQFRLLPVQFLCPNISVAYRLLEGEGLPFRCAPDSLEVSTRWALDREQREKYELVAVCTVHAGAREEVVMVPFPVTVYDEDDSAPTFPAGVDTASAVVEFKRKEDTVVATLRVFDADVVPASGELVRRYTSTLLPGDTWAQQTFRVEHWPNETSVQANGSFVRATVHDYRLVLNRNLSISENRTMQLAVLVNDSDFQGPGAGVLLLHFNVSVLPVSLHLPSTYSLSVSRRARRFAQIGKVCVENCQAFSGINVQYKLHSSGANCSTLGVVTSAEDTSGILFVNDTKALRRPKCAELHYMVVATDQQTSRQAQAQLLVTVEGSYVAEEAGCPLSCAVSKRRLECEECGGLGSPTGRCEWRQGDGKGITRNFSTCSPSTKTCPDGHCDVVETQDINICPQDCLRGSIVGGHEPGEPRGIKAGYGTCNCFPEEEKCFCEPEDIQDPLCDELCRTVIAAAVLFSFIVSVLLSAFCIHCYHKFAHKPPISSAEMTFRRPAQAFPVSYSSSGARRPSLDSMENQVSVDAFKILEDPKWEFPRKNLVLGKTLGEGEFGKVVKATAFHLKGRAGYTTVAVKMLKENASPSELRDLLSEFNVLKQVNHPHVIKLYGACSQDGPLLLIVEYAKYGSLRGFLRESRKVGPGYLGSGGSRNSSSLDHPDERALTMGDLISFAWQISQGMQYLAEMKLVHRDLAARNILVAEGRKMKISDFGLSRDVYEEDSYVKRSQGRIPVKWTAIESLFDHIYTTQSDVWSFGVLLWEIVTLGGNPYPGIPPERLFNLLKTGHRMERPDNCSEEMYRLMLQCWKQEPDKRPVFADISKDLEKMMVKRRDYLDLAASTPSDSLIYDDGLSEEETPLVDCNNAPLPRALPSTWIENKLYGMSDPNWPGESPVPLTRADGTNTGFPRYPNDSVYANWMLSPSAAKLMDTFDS
Experimental: FIG. 2. Effects of Cpd1 on human MTC cell lines harboring MEN2-associated RET mutants. A) Inhibition of Ret autophosphorylation. TT and MZ-CRC-1 cells, expressing respectively RET/MEN2A(C634W) and RET/MEN2B(M918T), were treated with the indicated concentrations of Cpd1, for 24 h. Control cells (C) received the solvent. Whole cell extracts were processed for Western blotting and probed with anti-pTyr and anti-Ret antibodies. […] B) Antiproliferative effect. TT and MZ-CRC-1 cells were treated with increasing concentrations of Cpd 1 for 7 days and then counted with a Coulter Counter.
The following human medullary thyroid carcinoma (MTC) cell lines were used in this study. The TT cell line derived from a MEN2A-associated MTC characterized by expression of the RET oncogene carrying the mutation C634W. […]
as §3

Kit (Δ559) = target: T3, Kit (Δ559) (Homo sapiens, UniProt P10721, DEL559-559); test: Kit (Δ559) autophosphorylation and expression in NIH3T3 transfectants; format: cell-based; conditions: 72 h
T3 construct: expressed in transfected cells; host or cells: NIH3T3 (mouse fibroblasts)
T3 sequence (P10721 with tags, fused parts or gaps DEL559-559): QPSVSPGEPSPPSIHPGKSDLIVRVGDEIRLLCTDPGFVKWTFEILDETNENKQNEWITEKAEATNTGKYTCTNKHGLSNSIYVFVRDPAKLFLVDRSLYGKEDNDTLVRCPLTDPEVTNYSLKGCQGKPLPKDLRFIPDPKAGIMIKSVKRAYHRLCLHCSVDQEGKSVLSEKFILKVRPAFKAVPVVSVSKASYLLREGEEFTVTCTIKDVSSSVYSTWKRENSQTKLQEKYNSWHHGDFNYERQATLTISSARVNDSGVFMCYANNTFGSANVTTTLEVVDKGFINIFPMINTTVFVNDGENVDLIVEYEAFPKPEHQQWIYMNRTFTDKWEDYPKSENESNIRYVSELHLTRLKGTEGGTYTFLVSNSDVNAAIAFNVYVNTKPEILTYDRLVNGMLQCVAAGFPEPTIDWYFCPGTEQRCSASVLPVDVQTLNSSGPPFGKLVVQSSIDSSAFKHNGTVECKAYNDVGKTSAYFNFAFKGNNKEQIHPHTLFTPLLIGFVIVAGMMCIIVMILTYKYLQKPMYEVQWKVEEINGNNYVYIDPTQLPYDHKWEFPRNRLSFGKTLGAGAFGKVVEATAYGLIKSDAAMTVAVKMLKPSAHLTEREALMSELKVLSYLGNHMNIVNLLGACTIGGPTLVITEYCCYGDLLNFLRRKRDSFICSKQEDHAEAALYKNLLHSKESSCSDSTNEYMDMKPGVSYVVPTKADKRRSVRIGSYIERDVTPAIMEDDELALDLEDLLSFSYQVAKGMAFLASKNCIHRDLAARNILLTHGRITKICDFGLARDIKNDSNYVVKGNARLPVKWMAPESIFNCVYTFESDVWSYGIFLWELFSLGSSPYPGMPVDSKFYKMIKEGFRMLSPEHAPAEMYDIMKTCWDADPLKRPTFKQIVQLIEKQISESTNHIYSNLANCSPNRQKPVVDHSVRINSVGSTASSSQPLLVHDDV
Experimental: (§4) FIG. 7. Effects of Cpd1 on cell lines expressing constitutively activated forms of Kit. […] Cells were treated with 20 μM Cpd1 and photographed 24 h later under a phase-contrast microscope (original magnification X 100). B): Inhibition of Kit (Δ559) autophosphorylation and expression in NIH3T3 transfectants. Cells were treated with Cpd 1 at the indicated concentrations, for 72 h. Cell lysates were immunoprecipitated with anti-Kit antibody and subjected to Western blotting with anti-p-Tyr or anti-Kit antibodies. C): Inhibition of expression and autocrine loop-activated autophosphorylation of c-Kit in the SCLC cell line N592. Cells were treated with Cpd 1 at the indicated concentrations, for 24 h. Whole cell lysates were subjected to Western blotting with anti-Kit antibody or with an antibody specifically recognizing the tyrosine phosphorylated/activated Kit (p-Kit).
as §2
For immunoprecipitation experiments, cells were treated with Cpd1 or solvent for the indicated times. […] Protein concentration was determined by the BCA reagent (Pierce). […]

c-Kit = target: T4, c-Kit (Homo sapiens, UniProt P10721); test: c-Kit autophosphorylation and expression in SCLC cell line N592; format: cell-based; conditions: N592 cells, 24 h
T4 construct: endogenous in cells; host or cells: N592 (human small cell lung carcinoma)
T4 sequence (P10721 26-976): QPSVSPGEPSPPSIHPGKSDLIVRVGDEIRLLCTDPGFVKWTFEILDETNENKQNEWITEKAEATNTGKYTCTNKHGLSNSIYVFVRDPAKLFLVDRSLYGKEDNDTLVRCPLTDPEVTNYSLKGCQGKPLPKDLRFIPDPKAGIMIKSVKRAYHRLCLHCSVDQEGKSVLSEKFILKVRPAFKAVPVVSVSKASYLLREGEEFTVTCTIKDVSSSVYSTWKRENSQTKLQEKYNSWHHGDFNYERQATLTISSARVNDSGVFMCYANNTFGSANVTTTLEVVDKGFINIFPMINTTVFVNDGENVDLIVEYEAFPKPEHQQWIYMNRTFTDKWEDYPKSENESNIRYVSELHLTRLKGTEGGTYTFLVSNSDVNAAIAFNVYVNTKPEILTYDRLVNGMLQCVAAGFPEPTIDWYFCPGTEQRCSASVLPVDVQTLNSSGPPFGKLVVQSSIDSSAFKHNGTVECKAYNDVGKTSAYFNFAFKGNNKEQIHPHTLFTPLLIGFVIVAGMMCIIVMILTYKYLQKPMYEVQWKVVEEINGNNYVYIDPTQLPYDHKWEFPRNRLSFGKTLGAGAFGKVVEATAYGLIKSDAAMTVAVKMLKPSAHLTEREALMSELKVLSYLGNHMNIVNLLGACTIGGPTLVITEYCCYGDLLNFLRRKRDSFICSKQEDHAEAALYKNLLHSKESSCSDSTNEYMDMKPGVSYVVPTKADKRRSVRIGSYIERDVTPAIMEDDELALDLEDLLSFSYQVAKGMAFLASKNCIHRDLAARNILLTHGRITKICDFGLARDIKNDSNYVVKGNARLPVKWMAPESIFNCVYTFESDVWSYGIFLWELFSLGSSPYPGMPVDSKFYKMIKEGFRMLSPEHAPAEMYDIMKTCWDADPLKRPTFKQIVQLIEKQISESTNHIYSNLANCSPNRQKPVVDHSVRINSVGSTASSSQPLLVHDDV
Experimental: as §4, with “(p-Kit). […]” for “(p-Kit).”
as §3

COc1cc2c(cc1OC)/C(=C\c1ccc(O)cc1)C(=O)N2 [Cpd 1, (E)-1,3-dihydro-5,6-dimethoxy-3-[(4-hydroxyphenyl)methylene]-2H-indol-2-one]
Transformed morphologic phenotype [1]: Reversion of the transformed morphologic phenotype | Ret/MEN2A(C634R) tyrosine phosphorylation (Ret/MEN2A(C634R); 2 h of exposure): partially dephosphorylated | Ret/MEN2A(C634R) receptor expression (Ret/MEN2A(C634R); longer times than 2 h): reduced expression | Ret/MEN2A(C634R) tyrosine phosphorylation (Ret/MEN2A(C634R); longer times than 2 h): complete tyrosine dephosphorylation | Tyrosine phosphorylation of Ret receptor (Ret/MEN2B(M918T)): dose-dependent inhibition | Ret receptor expression (Ret/MEN2B(M918T); highest concentrations): reduced expression | Kit (Δ559) expression (Kit (Δ559)): dose-dependent drug-induced inhibition | Kit (Δ559) tyrosine phosphorylation (Kit (Δ559)): dose-dependent drug-induced inhibition | c-Kit autocrine loop-activated tyrosine phosphorylation (p-Kit) (c-Kit): dose-dependent drug-induced inhibition | c-Kit expression (c-Kit): dose-dependent drug-induced inhibition
